Results published in publication PMC6010013, “Synthesis, physiochemical property and antimicrobial activity of novel quaternary ammonium salts” (Journal of Enzyme Inhibition and Medicinal Chemistry, 2017).
Where two headings read alike, the source gives them in different places.

Legend:
[1] = test system: human immortalised epidermal (HaCat) cell line; assay: Cytotoxicity, MTT assay; type: cell-based
Method: These six series of antimicrobial compounds may be applied to daily or clinical disinfectants for unbroken skin and trauma, or agricultural fungicides alternatively. Thus, their cytotoxicity for skin or body tissues are crucial. In this study, the cytotoxicity of target compounds was evaluated for human immortalised epidermal (HaCat) and human normal liver (LO2) cell line using MTT assay. […] The IC50 values of 5a, 6a, 10a, 16a, 16 b were about more than 50 μg/mL for LO2 and HaCat.
Cytotoxicity Testing with MTT Method
Human immortalized epidermal cells (HaCat) line were cultured in Dulbecco’s modified Eagle’s medium containing 10% fetal bovine serum, 1% penicillin, and 1% streptomycin at 37°C in a 5% CO2/95% air incubator MCO-15AC (SANYO). Human normal liver cells (LO2) line were cultured in Roswell Park Memorial Institute medium containing 10% fetal bovine serum, 1% penicillin, and 1% streptomycin at 37°C in a 5% CO2/95% air incubator MCO-15AC (SANYO). HaCat or LO2 cells in 96-well plate were adjusted to 1.0 × 10^5 cells mL-1 and cells were passed and cell supernatant was pour out before plating on glass slide at 37°C, 5% CO2 for 24 h. Cells were pretreated with 100 μL QAS for 24 h and cell supernatant with QAS was pour out and washed with PBS buffer system. Then, the cells were treated with the MTT solution (MTT, 3-(4,5-dimethythiazol-2-yl)-2,5-diphenyl-tetrazolium bromide, 20 μL, 5 mg/mL) for 4 h. The dark blue formazan crystal formed in the intact cells was solubilized with dimethyl sulfoxide, and absorbance at 570 nm was measured with a microplate reader (Multiskan MK3-Thermo Labsystems, USA). The results were expressed as percentage of the control value from the normal cells without treatments of QAS. […]

red blood cells = assay: Haemolysis assay; type: cell-based; settings: human red blood cells, 1 h at 37 ℃
Method: The surfactant may be absorbed and penetrate to the cell membrane, where it makes osmotic phenomena by altering the permeability of membrane, which in turn causes the cellular lysis. Haemolysis assay gives quantitative estimation about haemoglobin release when red blood cells are treated with QASs. Haemolytic assay of QASs at different concentration was carried out in Table 4. […] For 5a-b, 6a-b, 10a-c, 13a-b, and 16a-d, their safe concentration can more than 100 μg/mL. Compared with BZK and CA, all QASs were safe to be used when they circulated into the blood in low concentration. […]
The human blood from healthy individual was collected in a tube containing heparin, and the blood was centrifuged at 1500 rpm for 3 min. The […] (Erythrocyte) was collected and plasma was discarded and further washed five times with sterile normal saline solution. Then the cells were diluted to 0.2% of their volume with normal saline solution. 2 mL of the diluted red blood cells suspension was mixed with (a) 2 mL of normal salinesolution as a negative control; (b) 2 mL of distilled water as a positive control; (c) 2 mL of QAS solution which were dispersed into normal saline solution at the different concentrations ranging from 3.125 to 400 μg/mL. Then the mixtures were shaken well and incubated for 1 h at 37 ℃. Finally, the mixtures were centrifuged for 5min at 2000 r/min and the absorbances of supernatant at 540 nm was measured by a microplate reader (Multiskan MK3-Thermo Labsystems, USA). The hemolysis ratio was calculated as follows: The hemolysis ratio(%) = (OD Sample−OD Negative)/(OD Positive −OD Negative) ×100%. The hemolysis evaluation of QASs was performed in triplicate and results were expressed as the mean ± SD.

C[N+](CCO)(CCO)CCCCCCCCCCSc1nnc(-c2ccc(C(F)(F)F)cc2)o1.[Br-] [Compound 6c] showed a melting point of 102 to 103 °C.
In the case of “Benzalkonium chloride [BZK, reference compound]”, the “Cytotoxicity IC50” value [1] is reported as 3.19 ± 0.26 µg/mL, the Haemolysis rate (red blood cells; 6.25 μg/mL) is reported as 1.51 ± 0.31% and the Haemolysis rate (red blood cells; 12.50 μg/mL) is reported as 1.39 ± 0.38%. For the same molecule, the Haemolysis rate (red blood cells; 25.00 μg/mL) was 12.69 ± 1.87%, the Haemolysis rate (red blood cells; 50.00 μg/mL) was 63.85 ± 4.56% and the Haemolysis rate (red blood cells; 100.00 μg/mL) was 92.36 ± 3.78%. The Haemolysis rate (red blood cells; 200.00 μg/mL) was 96.28 ± 2.97% and the Haemolysis rate (red blood cells; 400.00 μg/mL) was 98.53 ± 1.23%.
C[N+](CCO)(CCO)CCCCCCCCCCCCSc1nnc(-c2ccc(C(F)(F)F)cc2)o1.[Br-] [Compound 6d] showed a melting point of 88 to 90 °C.
For C[N+](CCO)(CCO)CCCCCCCCSc1nnc(-c2ccc(C(F)(F)F)cc2)o1 [Compound 6b], the “Cytotoxicity IC50” value ([1]; HaCat cells, MTT, 24 h) was 32.57 ± 2.69 µg/mL.
